Among the data in article PMC10511816 (The Journal of Biological Chemistry, 2023) are Ki and Types of inhibition values, retold here.

The target in experiment [1] is XOR. As to conditions: read-out: Ki for the conversion of xanthine to uric acid; cited from earlier work.
The target in experiment [2] is T1, XOR (Bos taurus, UniProt P80457).
T1 construct: Bovine milk was obtained from the animal farm of the Nippon Veterinary and Life Science University; from tissue; host or cells: bovine milk
As to the kind of experiment: XOR kinetics with phenazine methosulfate / cytochrome c reduction (550 nm). Conditions: XOR, PMS. In kind it is biochemical, bovine. The method, then: Therefore, phenazine methosulfate was used to induce direct, rapid reoxidation of the molybdenum center ([22], [23]).
Bovine milk was obtained from the animal farm of the Nippon Veterinary and Life Science University. […] The dehydrogenase form of the enzyme (XDH) was obtained by reacting XO immediately upon purification with 5 mM DTT at pH 8.5, 25 °C for 1 h. XO and XDH assays were carried out at 25 °C under aerobic conditions. […] A total of 500 μM β-NAD^+ was added to the same reaction solution for XDH activity. Physiological conditions such as pH 7.4 (0.1 M potassium phosphate buffer (KPB), 0.2 mM EDTA) and the addition of 50 μM β-NADH were also used. […] In addition, the enzyme reaction solution was quenched with perchloric acid and neutralized with K2CO3, with products analyzed using HPLC as described below. Spectrophotometric data were analyzed using UV-Probe software Ver. 2.70 or LabSolutions UV-Vis Ver. […] Kinetic parameters were determined from nonlinear curve fits of raw data using GraphPad Prism 9 software.
A295 indicates the concentration of uric acid yielded by XOR. […] A295 indicates the concentration of uric acid yielded by XOR. Figure S2. The XOR inhibition mode of oxypurinol.A–G, Lineweaver-Burk plots were generated to visualize data and estimated the inhibition patterns. Data are representative of least two independent experiments. […] Figure S3. […] B, mode of inhibition of oxypurinol on the inosine degradation reaction of PNP. […] 0, 250, 375, 500, 750 and 1000 μM of oxypurinol were used. […] The rate of NAD^+ conversion to NADH was measured at A340 nm.

Experiment [3] has as its target T2, Purine nucleoside phosphorylase (PNP) (Homo sapiens, UniProt P00491).
T2 construct: purchased Sigma-Aldrich; host or cells: E. coli
T2 sequence (P00491 1-289): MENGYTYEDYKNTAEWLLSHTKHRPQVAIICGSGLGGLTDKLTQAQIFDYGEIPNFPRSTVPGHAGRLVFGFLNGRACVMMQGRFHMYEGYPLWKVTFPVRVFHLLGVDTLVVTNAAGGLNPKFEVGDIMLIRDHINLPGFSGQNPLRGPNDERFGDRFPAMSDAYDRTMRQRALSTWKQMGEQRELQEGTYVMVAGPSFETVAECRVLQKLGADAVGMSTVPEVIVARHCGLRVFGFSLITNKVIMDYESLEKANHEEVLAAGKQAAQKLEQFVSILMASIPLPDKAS
The arrangement: method as in PMID 5653179, PMID 121041. As to conditions: cited from earlier work.

pKi: −log10 of the molar value.

T1 sequence (P80457 whole entry): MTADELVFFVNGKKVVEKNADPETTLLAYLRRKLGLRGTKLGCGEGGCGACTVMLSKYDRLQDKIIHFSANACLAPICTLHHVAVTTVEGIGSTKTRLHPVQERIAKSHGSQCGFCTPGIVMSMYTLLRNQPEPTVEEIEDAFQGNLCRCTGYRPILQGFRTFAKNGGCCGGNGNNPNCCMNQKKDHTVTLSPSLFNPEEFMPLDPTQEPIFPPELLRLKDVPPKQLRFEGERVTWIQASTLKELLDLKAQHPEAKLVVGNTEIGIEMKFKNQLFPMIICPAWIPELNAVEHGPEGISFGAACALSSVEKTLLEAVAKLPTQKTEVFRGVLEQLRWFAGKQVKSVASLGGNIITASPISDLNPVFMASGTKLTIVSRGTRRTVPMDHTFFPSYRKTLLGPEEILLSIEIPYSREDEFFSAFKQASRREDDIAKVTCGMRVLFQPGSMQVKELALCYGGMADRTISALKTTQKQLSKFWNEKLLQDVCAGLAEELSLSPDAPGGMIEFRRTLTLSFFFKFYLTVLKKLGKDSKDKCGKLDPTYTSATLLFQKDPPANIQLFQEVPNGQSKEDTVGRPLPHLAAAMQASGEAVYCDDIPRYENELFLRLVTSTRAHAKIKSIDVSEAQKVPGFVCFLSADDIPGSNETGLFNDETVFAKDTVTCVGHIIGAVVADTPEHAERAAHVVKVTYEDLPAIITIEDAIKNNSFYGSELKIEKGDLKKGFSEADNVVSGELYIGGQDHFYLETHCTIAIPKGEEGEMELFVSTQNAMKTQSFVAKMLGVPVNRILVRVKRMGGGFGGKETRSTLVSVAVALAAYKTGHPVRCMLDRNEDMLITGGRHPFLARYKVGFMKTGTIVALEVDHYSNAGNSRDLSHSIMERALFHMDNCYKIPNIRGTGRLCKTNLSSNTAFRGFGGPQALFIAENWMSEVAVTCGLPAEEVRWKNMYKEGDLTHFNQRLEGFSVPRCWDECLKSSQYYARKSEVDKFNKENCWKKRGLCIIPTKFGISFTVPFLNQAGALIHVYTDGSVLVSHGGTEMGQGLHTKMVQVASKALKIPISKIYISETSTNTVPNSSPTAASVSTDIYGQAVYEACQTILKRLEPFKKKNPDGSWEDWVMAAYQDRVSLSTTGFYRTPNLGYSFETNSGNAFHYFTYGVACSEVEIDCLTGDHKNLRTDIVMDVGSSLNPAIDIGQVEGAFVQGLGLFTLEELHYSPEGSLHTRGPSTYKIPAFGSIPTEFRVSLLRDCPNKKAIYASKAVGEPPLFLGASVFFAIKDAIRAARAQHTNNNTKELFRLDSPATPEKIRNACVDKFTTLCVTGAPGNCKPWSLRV

Regarding `COc1cc(-c2cnn3c(=O)nc[nH]c23)ccc1[S+]([O-])c1ccccc1` (stereo not shown) [BOF], the pKi (as a rule, the Ki on a negative log10 scale, so that one unit is a factor of ten) at XOR [1] was more than 8.00.

In the case of `Cc1nc(-c2ccc(OCC(C)C)c(C#N)c2)sc1C(=O)O` [Febuxostat], the Types of inhibition entry on XOR [2] (substrate hypoxanthine) and on XOR [2] (substrate xanthine) was “Mixed” each time.

Regarding `O=c1ncnc2n([C@H]3O[C@@H](CO)[C@H](O)[C@@H]3O)[nH]cc1-2` [ribosyl derivative], in experiment [3], the negative-log Ki (pKi) is less than 3.70.
